# Test results published in patent US11617715B2, “Methods and compositions for modifying the behavior of animals” (Texas Tech University System, priority 2016, dated 2023).
# Test system: dog barking and jumping
# Experiment: Teaser dog kennel test of dog barking and jumping
# Assay type: in vivo
# Conditions: kennel dogs with teaser dog; for effectiveness in reducing barking and jumping (Quinoline compared to Androstenone): Study 3
# Procedure: The efficacy of Quinoline was tested in three studies conducted to determine if Quinoline would reduce dog barking and jumping. The composition used in the experiments comprised approximately 4 micrograms per milliliter of Quinoline.
# The basic parameters of the test involved walking a teaser dog in the center aisle of a dog kennel with test dogs on either side in kennels. The kennels were chain-linked fence with concrete floors. The researchers walked a teaser dog down the aisle and recorded dogs jumping and barking over a two minute period.
# In the first study, three treatments were evaluated. Treatment 1 represented no treatment of any kind. The teaser animal simply stood at the test subjects' kennel.
# Treatment 2 represented a control treatment. In this case, the delivery vehicle (isopropyl alcohol) spray was administered without Quinoline.
# In treatment 3, Quinoline was administered to the test subject animals.
# In study 2, the efficacy of Quinoline alone was tested. Test 2 was conducted a week after test 1. The same procedure was used in study 2 except that the test animals were only subject to the delivery of Quinoline.
# In study 3, Quinoline was compared to Androstenone (the compound described in U.S. Pat. No. 9,044,395). Again, the same procedures were used in study 3; the test animals were subject to Quinoline and Androstenone.
# [1] = Study 1, treatment 3, Quinoline approximately 4 micrograms per milliliter, spray
# [2] = Study 2, Quinoline alone, a week after study 1
SMILES,effectiveness in reducing barking and jumping (Quinoline compared to Androstenone),reduced barking [1] [%],reduced jumping [1] [%],reduced barking [2] [%],reduced jumping [2] [%]
"C[C@]12CCC(=O)C[C@@H]1CC[C@@H]1[C@@H]2CC[C@]2(C)C=CC[C@@H]12 [Androstenone, reference compound]",approximately equivalently effective,–,–,–,–
c1ccc2ncccc2c1 [Quinoline],approximately equivalently effective,80,90,100,90
